The record followed here is PMC4685510, “A Cell Biologist’s Field Guide to Aurora Kinase Inhibitors” (Frontiers in Oncology, 2015).

Holding throughout (test): biochemical
Common to all, as to format: biochemical

The target of assay [1] is 363 human kinases (including Aurora A/B/C) (Homo sapiens, UniProt Q9P0L2). The conditions noted are these: MARK1; for remaining activity at 0.5 µM / remaining activity at 0.1 µM: read-out: % Enzyme Activity (relative to DMSO controls); for remaining activity at 0.1 µM: 100 nM.
Description: (§1) However, the Aurora A/B selectivity ratios derived from our in vitro and in vivo data can be compared to prioritize inhibitors.
The target of assay [2] is 363 human kinases (including Aurora A/B/C) (Homo sapiens, UniProt Q9H792). To be noted: PEAK1; for remaining activity at 0.5 µM / remaining activity at 0.1 µM: read-out: % Enzyme Activity (relative to DMSO controls); for remaining activity at 0.1 µM: 100 nM.
Description: as §1
Assay [3] concerns the target 363 human kinases (including Aurora A/B/C) (Homo sapiens, UniProt P07332). The conditions noted are these: FES/FPS, [ATP] 50 µM; for remaining activity at 0.5 µM / remaining activity at 0.1 µM: read-out: % Enzyme Activity (relative to DMSO controls); for remaining activity at 0.1 µM: 100 nM.
Description: as §1
Assay [4] addresses T1, 363 human kinases (including Aurora A/B/C) (Homo sapiens, UniProt Q12852).
T1 sequence (Q12852 1-859): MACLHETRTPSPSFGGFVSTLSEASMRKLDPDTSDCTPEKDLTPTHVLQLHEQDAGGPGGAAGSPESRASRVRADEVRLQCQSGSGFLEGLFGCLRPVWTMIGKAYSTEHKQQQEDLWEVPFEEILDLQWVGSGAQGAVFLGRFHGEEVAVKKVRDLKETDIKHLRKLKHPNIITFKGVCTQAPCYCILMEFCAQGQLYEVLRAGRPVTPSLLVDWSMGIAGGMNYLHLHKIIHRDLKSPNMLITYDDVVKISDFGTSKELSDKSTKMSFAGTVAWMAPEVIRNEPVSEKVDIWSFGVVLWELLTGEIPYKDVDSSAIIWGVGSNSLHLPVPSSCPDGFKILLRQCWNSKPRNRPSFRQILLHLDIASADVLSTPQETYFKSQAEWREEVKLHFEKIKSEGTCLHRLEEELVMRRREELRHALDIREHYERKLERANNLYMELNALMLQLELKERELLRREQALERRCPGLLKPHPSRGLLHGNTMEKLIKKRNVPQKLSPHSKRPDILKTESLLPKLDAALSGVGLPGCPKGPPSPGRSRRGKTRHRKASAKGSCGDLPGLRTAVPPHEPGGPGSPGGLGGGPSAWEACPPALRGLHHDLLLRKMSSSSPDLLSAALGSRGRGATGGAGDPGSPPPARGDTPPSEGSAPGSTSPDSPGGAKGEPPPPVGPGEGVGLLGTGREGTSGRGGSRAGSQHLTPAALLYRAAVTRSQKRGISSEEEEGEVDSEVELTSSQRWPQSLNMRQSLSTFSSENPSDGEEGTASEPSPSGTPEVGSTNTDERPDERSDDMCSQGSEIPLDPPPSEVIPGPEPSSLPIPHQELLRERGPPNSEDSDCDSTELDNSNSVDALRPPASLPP
The conditions noted are these: DLK/MAP3K12, [ATP] 30 µM; for remaining activity at 0.5 µM / remaining activity at 0.1 µM: read-out: % Enzyme Activity (relative to DMSO controls); for remaining activity at 0.1 µM: 100 nM.
Description: as §1

Assay [5] deals with 363 human kinases (including Aurora A/B/C) (Homo sapiens, UniProt P51451). To be noted: BLK, [ATP] 10 µM; for remaining activity at 0.5 µM / remaining activity at 0.1 µM: read-out: % Enzyme Activity (relative to DMSO controls); for remaining activity at 0.1 µM: 100 nM.
Description: as §1
The target in assay [6] is T2, 363 human kinases (including Aurora A/B/C) (Homo sapiens, UniProt P30530).
T2 sequence (P30530 26-894): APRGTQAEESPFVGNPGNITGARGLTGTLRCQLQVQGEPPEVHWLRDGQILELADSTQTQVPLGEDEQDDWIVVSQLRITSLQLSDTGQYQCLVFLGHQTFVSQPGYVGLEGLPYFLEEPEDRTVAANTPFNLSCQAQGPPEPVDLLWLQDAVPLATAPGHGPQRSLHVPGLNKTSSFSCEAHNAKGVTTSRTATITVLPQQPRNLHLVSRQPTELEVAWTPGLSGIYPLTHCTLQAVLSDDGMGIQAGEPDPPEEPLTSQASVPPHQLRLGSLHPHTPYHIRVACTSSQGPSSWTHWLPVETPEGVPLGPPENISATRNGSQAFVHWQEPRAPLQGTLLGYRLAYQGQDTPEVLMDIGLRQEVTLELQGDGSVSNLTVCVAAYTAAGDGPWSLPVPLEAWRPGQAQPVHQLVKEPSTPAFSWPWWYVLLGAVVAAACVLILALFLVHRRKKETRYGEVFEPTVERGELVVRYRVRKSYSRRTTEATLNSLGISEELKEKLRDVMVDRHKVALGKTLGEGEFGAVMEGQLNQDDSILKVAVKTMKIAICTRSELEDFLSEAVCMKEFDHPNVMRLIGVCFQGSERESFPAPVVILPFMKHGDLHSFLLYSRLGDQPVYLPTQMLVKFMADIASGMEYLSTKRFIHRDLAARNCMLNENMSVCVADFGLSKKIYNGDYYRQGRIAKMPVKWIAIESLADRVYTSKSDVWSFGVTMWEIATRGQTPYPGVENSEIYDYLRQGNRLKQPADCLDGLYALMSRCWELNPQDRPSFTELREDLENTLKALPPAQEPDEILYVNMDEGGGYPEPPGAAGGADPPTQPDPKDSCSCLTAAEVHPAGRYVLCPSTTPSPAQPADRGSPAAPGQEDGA
The conditions noted are these: AXL, [ATP] 100 µM; for remaining activity at 0.5 µM / remaining activity at 0.1 µM: read-out: % Enzyme Activity (relative to DMSO controls); for remaining activity at 0.1 µM: 100 nM.
Description: as §1

Assay [7] has as its target 363 human kinases (including Aurora A/B/C) (Homo sapiens, UniProt Q16816). The conditions noted are these: PHKg1; for remaining activity at 0.5 µM / remaining activity at 0.1 µM: read-out: % Enzyme Activity (relative to DMSO controls); for remaining activity at 0.1 µM: 100 nM.
Description: as §1
The target in assay [8] is T3, 363 human kinases (including Aurora A/B/C) (Homo sapiens, UniProt Q15835).
T3 sequence (Q15835 1-563): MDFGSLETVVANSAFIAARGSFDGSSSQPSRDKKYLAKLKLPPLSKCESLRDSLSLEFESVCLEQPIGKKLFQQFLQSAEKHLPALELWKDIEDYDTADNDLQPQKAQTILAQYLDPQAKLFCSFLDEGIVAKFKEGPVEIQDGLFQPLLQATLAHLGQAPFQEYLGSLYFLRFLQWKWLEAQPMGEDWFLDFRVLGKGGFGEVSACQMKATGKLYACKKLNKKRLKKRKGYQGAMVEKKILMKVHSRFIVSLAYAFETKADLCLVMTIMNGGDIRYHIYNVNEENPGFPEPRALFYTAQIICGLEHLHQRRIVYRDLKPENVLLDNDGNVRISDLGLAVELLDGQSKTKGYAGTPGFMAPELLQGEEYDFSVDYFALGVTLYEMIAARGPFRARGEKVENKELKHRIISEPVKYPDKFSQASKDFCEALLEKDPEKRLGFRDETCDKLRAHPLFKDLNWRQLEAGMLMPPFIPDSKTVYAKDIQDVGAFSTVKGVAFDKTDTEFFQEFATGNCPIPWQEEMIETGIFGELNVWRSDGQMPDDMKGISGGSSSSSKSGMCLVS
To be noted: GRK1; for remaining activity at 0.5 µM / remaining activity at 0.1 µM: read-out: % Enzyme Activity (relative to DMSO controls); for remaining activity at 0.1 µM: 100 nM.
Description: as §1

The target in assay [9] is 363 human kinases (including Aurora A/B/C) (Homo sapiens, UniProt Q13554). To be noted: CAMK2b, [ATP] 100 µM; for remaining activity at 0.5 µM / remaining activity at 0.1 µM: read-out: % Enzyme Activity (relative to DMSO controls); for remaining activity at 0.1 µM: 100 nM.
Sequence of 363 human kinases (including Aurora A/B/C) (Homo sapiens, UniProt Q13554) (Q13554 whole entry): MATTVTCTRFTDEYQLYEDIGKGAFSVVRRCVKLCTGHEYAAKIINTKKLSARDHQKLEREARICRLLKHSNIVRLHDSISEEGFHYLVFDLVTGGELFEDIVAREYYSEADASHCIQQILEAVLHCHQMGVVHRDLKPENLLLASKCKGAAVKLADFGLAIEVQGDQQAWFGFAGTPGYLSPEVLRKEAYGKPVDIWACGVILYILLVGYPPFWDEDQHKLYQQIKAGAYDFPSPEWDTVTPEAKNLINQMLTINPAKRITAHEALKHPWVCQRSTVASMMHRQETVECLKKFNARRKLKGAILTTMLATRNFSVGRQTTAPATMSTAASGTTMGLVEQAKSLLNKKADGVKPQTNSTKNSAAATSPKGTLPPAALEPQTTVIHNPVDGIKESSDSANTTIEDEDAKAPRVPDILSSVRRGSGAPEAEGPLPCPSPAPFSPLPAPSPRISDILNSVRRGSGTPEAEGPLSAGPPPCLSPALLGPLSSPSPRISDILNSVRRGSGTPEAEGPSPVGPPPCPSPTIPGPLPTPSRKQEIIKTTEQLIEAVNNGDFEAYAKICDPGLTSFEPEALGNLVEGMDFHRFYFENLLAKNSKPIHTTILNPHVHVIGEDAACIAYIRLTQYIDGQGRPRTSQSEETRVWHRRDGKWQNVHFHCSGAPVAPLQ
Description: as §1

Sequence of 363 human kinases (including Aurora A/B/C) (Homo sapiens, UniProt P07332) (P07332 whole entry): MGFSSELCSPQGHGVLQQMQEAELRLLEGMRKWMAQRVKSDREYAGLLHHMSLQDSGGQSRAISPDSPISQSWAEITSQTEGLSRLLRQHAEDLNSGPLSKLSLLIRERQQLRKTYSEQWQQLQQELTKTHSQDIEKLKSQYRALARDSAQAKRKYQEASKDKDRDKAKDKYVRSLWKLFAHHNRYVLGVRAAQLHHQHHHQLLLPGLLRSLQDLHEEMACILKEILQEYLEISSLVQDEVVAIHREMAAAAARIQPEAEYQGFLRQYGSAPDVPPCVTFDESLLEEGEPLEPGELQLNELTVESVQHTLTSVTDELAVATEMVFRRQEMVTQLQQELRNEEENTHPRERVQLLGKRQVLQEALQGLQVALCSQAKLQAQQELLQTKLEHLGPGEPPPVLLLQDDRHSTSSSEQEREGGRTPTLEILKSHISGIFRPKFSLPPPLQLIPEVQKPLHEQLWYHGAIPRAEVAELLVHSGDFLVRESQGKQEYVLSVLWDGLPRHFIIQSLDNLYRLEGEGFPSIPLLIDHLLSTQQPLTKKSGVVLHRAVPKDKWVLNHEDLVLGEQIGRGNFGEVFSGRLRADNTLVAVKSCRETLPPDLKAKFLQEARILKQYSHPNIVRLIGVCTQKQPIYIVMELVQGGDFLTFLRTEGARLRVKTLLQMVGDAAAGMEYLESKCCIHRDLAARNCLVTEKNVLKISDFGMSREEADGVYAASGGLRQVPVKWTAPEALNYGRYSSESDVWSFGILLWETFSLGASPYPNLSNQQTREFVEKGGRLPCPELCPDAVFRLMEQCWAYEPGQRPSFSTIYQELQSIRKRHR
Sequence of 363 human kinases (including Aurora A/B/C) (Homo sapiens, UniProt P51451) (P51451 whole entry): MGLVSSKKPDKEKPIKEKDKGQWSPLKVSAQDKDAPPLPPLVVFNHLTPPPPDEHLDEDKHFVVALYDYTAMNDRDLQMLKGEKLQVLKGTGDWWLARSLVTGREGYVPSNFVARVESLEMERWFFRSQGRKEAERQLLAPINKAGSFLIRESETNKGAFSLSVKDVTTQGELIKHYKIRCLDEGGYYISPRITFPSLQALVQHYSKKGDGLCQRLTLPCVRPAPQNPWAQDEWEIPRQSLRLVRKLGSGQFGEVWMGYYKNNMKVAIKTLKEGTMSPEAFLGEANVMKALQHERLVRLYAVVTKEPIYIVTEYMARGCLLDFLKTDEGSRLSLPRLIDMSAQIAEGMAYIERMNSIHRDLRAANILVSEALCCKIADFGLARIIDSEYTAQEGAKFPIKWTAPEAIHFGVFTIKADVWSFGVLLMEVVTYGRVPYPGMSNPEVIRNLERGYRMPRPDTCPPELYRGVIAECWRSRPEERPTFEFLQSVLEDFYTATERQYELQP
Sequence of 363 human kinases (including Aurora A/B/C) (Homo sapiens, UniProt Q16816) (Q16816 whole entry): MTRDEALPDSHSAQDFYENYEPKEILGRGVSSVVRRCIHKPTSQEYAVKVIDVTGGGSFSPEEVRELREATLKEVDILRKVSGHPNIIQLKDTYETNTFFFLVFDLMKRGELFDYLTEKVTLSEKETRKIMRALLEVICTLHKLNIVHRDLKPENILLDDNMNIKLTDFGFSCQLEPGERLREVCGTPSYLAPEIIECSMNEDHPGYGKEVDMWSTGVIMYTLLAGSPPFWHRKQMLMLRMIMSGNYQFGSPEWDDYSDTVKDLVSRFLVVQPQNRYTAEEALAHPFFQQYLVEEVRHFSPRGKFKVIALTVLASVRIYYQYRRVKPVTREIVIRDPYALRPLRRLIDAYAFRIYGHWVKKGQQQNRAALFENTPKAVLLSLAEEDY
Sequence of 363 human kinases (including Aurora A/B/C) (Homo sapiens, UniProt Q9P0L2) (Q9P0L2 whole entry): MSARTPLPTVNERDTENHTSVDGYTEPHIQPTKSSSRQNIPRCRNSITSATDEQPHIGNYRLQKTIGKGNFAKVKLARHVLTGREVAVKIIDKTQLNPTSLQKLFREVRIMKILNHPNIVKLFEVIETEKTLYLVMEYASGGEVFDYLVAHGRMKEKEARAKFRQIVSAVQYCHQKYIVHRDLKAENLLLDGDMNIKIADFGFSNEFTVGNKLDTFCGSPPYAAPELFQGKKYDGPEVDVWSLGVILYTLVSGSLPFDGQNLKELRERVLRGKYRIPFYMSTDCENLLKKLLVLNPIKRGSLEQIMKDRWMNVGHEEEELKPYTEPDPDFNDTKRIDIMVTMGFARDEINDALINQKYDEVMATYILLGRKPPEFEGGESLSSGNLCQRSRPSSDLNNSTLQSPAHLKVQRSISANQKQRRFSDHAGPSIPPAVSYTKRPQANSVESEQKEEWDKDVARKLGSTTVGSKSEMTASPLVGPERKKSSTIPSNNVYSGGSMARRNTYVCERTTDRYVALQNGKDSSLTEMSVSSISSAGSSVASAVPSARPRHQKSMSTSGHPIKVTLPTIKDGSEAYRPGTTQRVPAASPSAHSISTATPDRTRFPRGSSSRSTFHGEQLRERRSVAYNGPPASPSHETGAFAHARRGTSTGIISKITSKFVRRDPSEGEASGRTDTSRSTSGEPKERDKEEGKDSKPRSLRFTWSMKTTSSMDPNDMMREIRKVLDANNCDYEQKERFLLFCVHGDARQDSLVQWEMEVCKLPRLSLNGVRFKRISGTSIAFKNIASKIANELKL
Sequence of 363 human kinases (including Aurora A/B/C) (Homo sapiens, UniProt Q9H792) (Q9H792 whole entry): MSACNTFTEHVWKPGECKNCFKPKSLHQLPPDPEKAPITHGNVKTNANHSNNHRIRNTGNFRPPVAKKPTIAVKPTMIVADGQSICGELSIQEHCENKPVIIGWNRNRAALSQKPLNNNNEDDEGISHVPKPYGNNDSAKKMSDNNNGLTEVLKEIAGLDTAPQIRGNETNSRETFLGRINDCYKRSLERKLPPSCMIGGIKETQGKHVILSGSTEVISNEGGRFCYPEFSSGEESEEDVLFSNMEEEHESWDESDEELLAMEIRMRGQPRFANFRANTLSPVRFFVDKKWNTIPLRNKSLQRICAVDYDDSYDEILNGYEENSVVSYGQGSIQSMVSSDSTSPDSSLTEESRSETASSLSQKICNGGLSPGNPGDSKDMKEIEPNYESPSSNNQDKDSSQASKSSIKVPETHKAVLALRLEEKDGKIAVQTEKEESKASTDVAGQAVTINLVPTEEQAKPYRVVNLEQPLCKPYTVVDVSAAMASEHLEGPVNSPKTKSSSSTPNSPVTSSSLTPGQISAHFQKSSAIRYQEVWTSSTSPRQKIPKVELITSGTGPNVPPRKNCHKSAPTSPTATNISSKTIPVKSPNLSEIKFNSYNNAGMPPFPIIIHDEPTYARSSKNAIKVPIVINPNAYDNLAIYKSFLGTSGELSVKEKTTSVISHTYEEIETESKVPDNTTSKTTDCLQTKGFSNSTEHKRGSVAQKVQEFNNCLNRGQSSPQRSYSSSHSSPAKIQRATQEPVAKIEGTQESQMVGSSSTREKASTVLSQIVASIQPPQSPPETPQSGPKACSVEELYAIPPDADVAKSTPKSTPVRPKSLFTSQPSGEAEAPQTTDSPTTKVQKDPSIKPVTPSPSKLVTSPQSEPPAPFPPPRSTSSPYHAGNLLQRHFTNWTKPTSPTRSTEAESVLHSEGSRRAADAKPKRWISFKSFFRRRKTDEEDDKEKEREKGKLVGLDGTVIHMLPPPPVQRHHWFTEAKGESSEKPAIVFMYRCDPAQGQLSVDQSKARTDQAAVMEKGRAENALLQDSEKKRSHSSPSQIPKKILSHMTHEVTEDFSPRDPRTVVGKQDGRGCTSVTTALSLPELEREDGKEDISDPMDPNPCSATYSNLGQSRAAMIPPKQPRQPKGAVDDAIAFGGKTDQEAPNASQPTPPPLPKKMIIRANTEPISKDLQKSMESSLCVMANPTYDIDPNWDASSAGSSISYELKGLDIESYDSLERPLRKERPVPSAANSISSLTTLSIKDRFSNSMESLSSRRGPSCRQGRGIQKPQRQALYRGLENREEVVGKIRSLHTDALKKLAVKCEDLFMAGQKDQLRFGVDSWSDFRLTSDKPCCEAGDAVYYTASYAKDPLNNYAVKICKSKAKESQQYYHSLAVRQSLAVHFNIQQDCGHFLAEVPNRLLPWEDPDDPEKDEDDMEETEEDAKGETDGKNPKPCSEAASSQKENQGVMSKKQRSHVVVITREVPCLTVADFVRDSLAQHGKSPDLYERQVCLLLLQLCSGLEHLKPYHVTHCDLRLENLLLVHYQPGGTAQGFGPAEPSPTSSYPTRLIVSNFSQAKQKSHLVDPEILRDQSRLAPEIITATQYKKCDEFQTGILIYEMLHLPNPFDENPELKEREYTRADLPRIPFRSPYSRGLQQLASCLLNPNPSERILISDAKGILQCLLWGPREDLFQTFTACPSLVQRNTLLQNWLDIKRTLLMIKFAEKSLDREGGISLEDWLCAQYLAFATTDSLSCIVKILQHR

Regarding `O=C(c1cccc(Cl)c1F)N1CCN(Cc2cccc(Nc3nccs3)n2)CC1` [MK-8745], the “% Enzyme Activity (relative to DMSO controls)” value in assay [1] (500 nM) worked out at 96.30%; in assay [2] (500 nM), 38.63%; in assay [3] (500 nM), 85.63%; in [4] (500 nM) it was 53.85%; in assay [5] (500 nM), 72.45%; in assay [6] (500 nM), 9.19%. Further, the “% Enzyme Activity (relative to DMSO controls)” value in assay [7] (500 nM) amounted to 90.90%; in [8] (500 nM), 98.09%; in [9] (500 nM) it was 99.72%. In addition, the remaining activity at 0.5 µM in [1] (500 nM) turned out to be 96.5%; in assay [2] (500 nM) it was 39.1%; in [3] (500 nM), 86%; in assay [4] (500 nM), 59.2%; in assay [5] (500 nM), 72.7%; in [6] (500 nM), 9.98%. Besides, the values for the remaining activity at 0.5 µM in assay [7] (500 nM), in assay [8] (500 nM) and in assay [9] (500 nM) were 93.3%, 101% and 101%, respectively.
Turning to `CCn1cc(-c2ccnc3[nH]c(-c4cccc(CN(C)C)c4)cc23)c(-c2ccc(NC(=O)N(C)C)cc2)n1` [GSK1070916], the remaining activity at 0.1 µM amounted to 93% in assay [1]; 90% in assay [2]; 90% in assay [3]; 80.4% in [4]; 85% in assay [5]; 103% in assay [6]. Moreover, the figures for the remaining activity at 0.1 µM in assay [7], in [8] and in assay [9] were 95.6%, 95.1% and 101%, respectively.
In the case of `O=C(O)[C@]1(Cc2cccc(Nc3nccs3)n2)CC[C@@H](Oc2cccc(Cl)c2F)CC1` [MK-5108], the remaining activity at 0.1 µM was 117% in assay [1]; 30.5% in assay [2]; 96% in assay [3]; 72.1% in assay [4]; 54.8% in assay [5]; 38.5% in assay [6]. Moreover, the results for the remaining activity at 0.1 µM in [7], in [8] and in [9] were 99.1%, 99% and 95.5%, respectively. The remaining activity at 0.5 µM in assay [1] (500 nM) worked out at 98.6%; in assay [2] (500 nM) it was 11.6%; in [3] (500 nM), 73.7%; in assay [4] (500 nM), 23.1%; in [5] (500 nM) it was 17.1%; in assay [6] (500 nM) it was 14%. For the same compound, the remaining activity at 0.5 µM amounted to 82% in assay [7] (500 nM), 106% in assay [8] (500 nM) and 97.8% in [9] (500 nM).
